Experimental data reported in patent US12059429B2, “Hornerin: a novel non-VEGF mediated angiogenic protein expressed in both human and mouse angiogenic endothelial cells and human pancreatic cancer cells” (University of Virginia Patent Foundation, priority 2018, dated 2024).

Legend:
hornerin = experiment: Immunoblot of hornerin in HUVECs treated with growth factors; type: cell-based, human; conditions: 24 hours treatment; growth factors at published B-max concentrations, EGF at increasing concentrations
Description: HUVECs were cultured in 10 cm dishes for 24 hours prior to a change to media containing VEGF (at B-max concentration), TCM, or VC. After 24 hours treatment, the cells were washed with DPBST two times and lysed with radioimmunoprecipitation assay (RIPA) buffer (Thermo Scientific). Lysate protein concentrations were measured by the bicinchoninic acid assay (Pierce, Waltham, MA, USA) and equivalent amounts of protein were loaded into precast 4-15% tris-glycine eXtended (TGX) polyacrylamide gels (Bio-Rad, Hercules, CA, USA). The proteins were resolved by electrophoresis and transferred to nitrocellulose membranes using the iBlot system (Invitrogen, Carlsbad, CA, USA). The membranes were then washed in Tris-buffered saline+1% Tween-20 (TBST), blocked for 30 minutes in TBST+2% milk solution, and incubated overnight at 4° C. with primary antibodies anti-hornerin (Abcam, Cambridge, UK, ab78909; (1:1000)) and anti-HSP90 (Cell Signaling Technology, Danvers, MA, USA, 4877; (1:1000)). The following day the membranes were washed and subsequently incubated with the secondary antibodies anti-goat HRP (R&D Systems, Minneapolis, MN, USA, HAF109; 1:5000) and anti-rabbit HRP (GE Healthcare, NA934V; 1:5000) for 45 minutes at RT. […]
Major constituents of TCM were determined using a Human Angiogenesis Antibody Array (Affymetrix, Santa Clara, CA, USA) per manufacturer's instructions. […]

L3.6pl PDAC cells = experiment: Subcutaneous L3.6pl PDAC xenograft tumor volume; type: in vivo, mouse
Description: A tumor sample size of four was determined by power analysis based on prior tumor xenograft studies. For our 80% power analysis, the difference between means was 200 mm^3, standard deviation was 100 mm^3, and P-value<0.05 (P<0.05). Tumors were measured at least twice weekly until their volume was >1000 mm^3, at which point animals were euthanized. Tumor size data were collected from each tumor, with the exception of one tumor in the combination treatment experiment that was identified with 90% confidence via Grubb's Outlier Test. The following number of mice in each treatment cohort was evaluated for tumor outgrowth: (Scr siRNA/ctrl., N=15; Hrnr siRNA/ctrl., N=14; Scr siRNA/AV-951, N=8; Hrnr siRNA/AV-951, N=8).
For tumor implantation, L3.6pl cells were grown under normal culture conditions for 72 hours prior to being trypsinized and enumerated. The cells were suspended in aliquots of 500,000 cells/50 μL Hanks Balanced Salt Solution (HBSS; Corning, Manassas, VA, USA) and 50 μL of Matrigel (BD Biosciences, San Jose, CA, USA) was added to each aliquot of cells prior to implantation. The cell-Matrigel slurry was injected subcutaneously into nu/nu mice on the flanks or orthotopically into the pancreas (Seaman et al., 2011). The injection site for subcutaneous tumors was monitored daily for growth and tumor volume was calculated form caliper measurements using the formula (width^2×length)/2.
The VEGFR inhibitor AV-951 (Selleck Chemicals, Houston, TX, USA) was suspended in 0.5% methocel+0.5% Tween-20 in HBSS to increase viscosity and 50 μL of 1.0 mg/kg AV-951 or VC solution was administered once daily by oral gavage (22-gauge gavage needle (Kent Scientific, Torrington, CT, USA) connected to a 1 mL syringe). […] To prepare Hrnr siRNA and Silencer Select Negative Control #1 Scr siRNA (Invitrogen; catalog number 4390844) for injection, 10 μg of hornerin or control siRNA were combined with in vivo-jetPEI transfection reagent (Polyplus, France) in solution with 5% glucose per Polyplus instructions (total volume 50 μL). After a 30 minutes incubation, the siRNA solutions were injected slowly into the center of the tumor. A second independent hornerin knockdown experiment was conducted using a pooled set of three unique mouse Hrnr siRNA duplexes (5′-[…]-3′ (SEQ ID NO: 50); 5 ‘-[…]-3’ (SEQ ID NO: 51); 5 ‘-[…]-3’ (SEQ ID NO: 52)) and Scr siRNA (Origene, Rockville, MD, USA). The reagent preparation and injection protocol were similar to that described above.

tumor vessels = experiment: Tumor vessel parameters in L3.6pl tumor sections (CD34, ACTA2, RAVE analysis); type: in vivo, mouse; conditions: four-group combination experiment, vs control
Description: Following completion of the treatment schedule, the mice were killed, cardiac perfused, and the tumors were excised and fixed in formalin overnight. The tumors were paraffin embedded and cut into 5 (thin) or 50 μm (thick) sections. Tumor vessel parameters were evaluated in the following number of tumors for each treatment cohort: (Scr siRNA/ctrl., N=10; Hrnr siRNA/ctrl., N=10; Scr siRNA/AV-951, N=4; Hrnr siRNA/AV-951, N=4).
Tumor sections were deparaffinized, rehydrated, heated in antigen retrieval solution (Vector), blocked for 30 minutes in blocking buffer, and incubated with anti-CD34 antibody (Abcam, ab8158, clone MEC14.7; 1:100) in blocking buffer overnight at 4° C. The sections were then incubated with goat anti-rat FITC secondary antibody (Abcam, ab6840; 1:100) in blocking buffer prior to mounting with Prolong Gold Antifade reagent (Invitrogen). Anti-actin, α-smooth muscle Cy3 antibody (Sigma, C6198, clone 1A4; 1:200) was added to the primary antibody solution if assaying for alpha-smooth muscle actin. To compare hornerin expression in vessels and tumor tissue treated with Hrnr siRNA and Scr siRNA, thin paraffin sections were deparaffinized and stained with anti-CD34 and anti-hornerin antibodies described. Images were collected using a Nikon TE 2000-E2 microscope (Nikon Instruments) equipped with a Melles Griot Argon Laser System (Melles Griot, Carlsbad, CA, USA) and a Nikon D-Eclipse C1 confocal attachment and analyzed by Measurement Tool in Image J. To measure the relative hornerin expression in tumor vessels, three vessel segments per image were isolated and their mean intensity and area were measured and recorded. A weighted mean intensity was calculated to correct for differences in selected area. To measure the relative hornerin expression in tumor tissue, the mean intensity from three square sections (75×75 pixel) of tumor tissue per image was measured and recorded.
(§1) Vessel parameters were measured using RAVE software (Seaman et al., 2011). For detection of proliferation and apoptosis, the sections were incubated with the primary antibodies anti-Ki67 (Abcam, ab15580; 1:200) or anti-cleaved caspase 3 (Cell Signaling, 9661; 1:200), respectively, overnight at 4° C. followed by incubation with anti-rabbit AF594 (Abcam, 150080; 1:200).

tumor vascularity = experiment: DCE-MRI and Ktrans measurement of L3.6pl tumors; type: in vivo, mouse; conditions: AV-951 1.0 mg/kg once daily oral gavage; AV-951 only vs control; combination vs AV-951
Description: To assess the in vivo function of tumor vascularity, DCE-MRI was performed on a 7.0 T Clinscan small animal imaging system (Bruker, Ettlingen, Germany) using a 30 mm inner-diameter birdcage radiofrequency coil. Mice (N=7) were imaged prior to treating tumors with Hrnr and Scr siRNA and again 6 days after treatment. Mice treated with the VEGFR inhibitor AV-951 (N=5) were image pre-siRNA treatment and 6 days posttreatment. Mice were anesthetized with 1.25% isoflurane anesthesia, which was maintained during imaging. Respiration and ECG were monitored during imaging using an MRI-compatible system (SA Instruments, Stony Brook, NY, USA). An indwelling tail vein catheter was established for administration of the gadolinium contrast agent Gd-DTPA, which is required in DCE imaging. Mice were placed supine in the imaging system, and body temperature was maintained at 36° C.±1° C. using circulating, temperature controlled water. Tumors were localized using a spin-echo imaging sequence, and an imaging plane that transected both tumors was chosen for DCE imaging.
A dual-Gd-bolus DCE-MRI acquisition strategy (Christian et al., 2004) was employed, which uses a low dose of contrast agent to accurately acquire the undistorted Gd concentration vs. time curve in the blood pool and a higher dose of contrast agent to acquire the Gd concentration vs. time curve in the tumor with high signal-to-noise ratio, since Gd-DTPA is known to have signal saturation effects at high doses in the blood pool (Christian et al., 2004). […]

L3.6pl tumors = experiment: Ki67 and cleaved caspase 3 immunofluorescence in tumor sections; type: in vivo, mouse; conditions: day 15 tumor sections
Description: as §1

tumor vasculature = experiment: Photoacoustic microscopy of tumor vasculature; type: in vivo, mouse; conditions: day 12
Source text: Using an established PAM system (Wang & Hu, 2012; Ning et al., 2015a; Ning et al., 2015b), the tumor vasculature was characterized in vivo. Two laser wavelengths, 532 and 559 nm, were used to simultaneously quantify microvascular diameter, oxygen saturation, and blood flow at the same spatial scale (Ning et al., 2015a). The applied optical energies were 100 and 75 nJ, which are below the maximum permissible exposure energy. Throughout the experiment, mice were maintained under anesthesia with 1.5% vaporized isoflurane and the body temperature was kept at 37° C. All experimental procedures were carried out in conformity with the laboratory animal protocol approved by the Animal Care and Use Committee at the University of Virginia.

Molecule | hornerin expression in HUVECs (hornerin) | tumor volume decrease compared to control-treated animals (L3.6pl PDAC cells; day 5 post implantation, 1.0 mg/kg AV-951 once daily oral gavage) | reduction in tumor volume (discussion summary) (L3.6pl PDAC cells; monotherapy or combined therapies) | number of vessels per field (tumor vessels) | vessel morphology (tumor vessels) | Ktrans values (in words) (tumor vascularity) | cleaved caspase 3 levels in tumors relative to control (L3.6pl tumors) | tumor blood hemoglobin levels (tumor vasculature) | tumor blood oxygen saturation compared to control (tumor vasculature)
bFGF: growth factor found in TCM, added to HUVECs at published B-max concentration | might stimulate hornerin expression | – | – | – | – | – | – | – | –
COc1cc2nccc(Oc3ccc(NC(=O)Nc4cc(C)on4)c(Cl)c3)c2cc1OC [AV-951, 1-[2-chloro-4-(6,7-dimethoxyquinolin-4-yl)oxyphenyl]-3-(5-methyl-1,2-oxazol-3-yl)urea, reference compound] | – | 2.3 fold | two-fold | fewer vessels were observed | morphologically similar to control vessels | decrease | two-fold increase | remained unchanged | 1.5 fold
